Measurements reported in publication PMC3052630 (Bioorganic & medicinal chemistry letters, 2011).

Columns and labels:
[1] = mouse plasma and brain levels; assay type: in vivo; conditions: 10 mg/kg ip 2h
rat pharmacokinetics = assay type: in vivo
p38 = p38 (Homo sapiens, UniProt Q16539); experiment: p38 biochemical inhibition / selectivity; conditions: for selectivity over p38: JNK3 vs p38
Sequence of p38 (Q16539 whole entry): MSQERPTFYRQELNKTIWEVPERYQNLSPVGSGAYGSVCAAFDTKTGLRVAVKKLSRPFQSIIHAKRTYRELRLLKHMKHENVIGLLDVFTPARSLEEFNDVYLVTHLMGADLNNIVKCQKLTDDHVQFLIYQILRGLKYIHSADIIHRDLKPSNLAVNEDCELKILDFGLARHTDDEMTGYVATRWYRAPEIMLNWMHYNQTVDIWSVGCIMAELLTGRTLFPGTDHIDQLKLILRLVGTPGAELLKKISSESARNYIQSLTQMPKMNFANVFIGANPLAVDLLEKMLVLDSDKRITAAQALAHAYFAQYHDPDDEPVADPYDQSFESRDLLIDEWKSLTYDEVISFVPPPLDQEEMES

Cc1ccc(-c2cccc3cnc(Nc4ccc(-n5cnc(N6CCOCC6)n5)cc4)nc23)cn1 [9a]
mouse [plasma] [1]: 2.72 µM

Cc1ncn(-c2ccc(Nc3ncc4cccc(-c5nccs5)c4n3)cc2)n1 [9g]
PK properties (rat pharmacokinetics; data not shown, species not given): poor

Cn1cc(-c2ccc3cnc(Nc4ccc(-n5cnc(N6CCOCC6)n5)cc4)nc3c2Cl)cn1 [13a]
selectivity over p38 (p38): > 500 fold | clearance (rat pharmacokinetics; rat, plasma, iv, 1 mg/kg): 6 mL/min/kg

Cn1cc(-c2ccc3cnc(Nc4ccc(-n5cnc(N6CCOCC6)n5)cc4)nc3c2-c2cnn(C)c2)cn1 [14d]
IC50 (p38): > 20 µM | selectivity over p38 (p38): > 2200 fold

Cn1cc(-c2ccc3cnc(Nc4ccc(-n5cnc(N6CCOCC6)n5)cc4)nc3c2)cn1 [compound 3]
mouse [brain] [1]: 7.2 µM
